Data taken from ChEMBL document CHEMBL1201862, “PubChem BioAssay data set” (2004).
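All cell lines were grown in 96-well plates and treated with compound for 48 hours. GI50: concentration for 50% inhibition of growth.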 Calls of active or inactive are those of the source. No stated cut-off is given here; in the data, active = GI50 up to about 1.1 µM and inactive = higher. Residues, ends and D or L forms follow the SMILES beside them. *: point of attachment. Boc = CC(C)(C)OC(=O)*

Tests used:
Assay in all cases: NCI tumour cell line growth inhibition, 48 h
[1] = system: 786-0
[2] = system: COLO 205
[3] = system: HCC 2998
[4] = system: HCT-15
[5] = system: IGROV-1
[6] = system: LOX IMVI
[7] = system: MCF7
[8] = system: Malme-3M
[9] = system: NCI-H226
[10] = system: NCI/ADR-RES
[11] = system: SF-295
[12] = system: SK-OV-3
[13] = system: SN12C
[14] = system: SNB-75
[15] = system: TK-10
[16] = system: U-251
[17] = system: HL-60
[18] = system: HT-29
[19] = system: SK-MEL-5
[20] = system: UACC-62

Row | Compound | GI50 [1] | GI50 [2] | GI50 [3] | GI50 [4] [µM] | GI50 [5] | GI50 [6] | GI50 [7] | GI50 [8] | GI50 [9] | GI50 [10] | GI50 [11] | GI50 [12] | GI50 [13] | GI50 [14] | GI50 [15] | GI50 [16] | GI50 [17] | GI50 [18] | GI50 [19] | GI50 [20]
1 | CC(C)=CC(O)C(C(O)CCC1(C)OCCO1)S(=O)(=O)c1ccccc1 (stereo unspecified) | > 100 µM (inactive) | > 100 µM (inactive) | > 100 µM (inactive) | > 100 | > 100 µM (inactive) | > 100 µM (inactive) | > 100 µM (inactive) | > 100 µM (inactive) | > 100 µM (inactive) | > 100 µM (inactive) | > 100 µM (inactive) | > 100 µM (inactive) | > 100 µM (inactive) | > 100 µM (inactive) | > 100 µM (inactive) | > 100 µM (inactive) | – | – | – | –
2 | O=c1sc(Nc2ccc3ccccc3c2Cl)nc2ccccc12 | > 100 µM (inactive) | > 100 µM (inactive) | > 100 µM (inactive) | > 100 | > 100 µM (inactive) | > 100 µM (inactive) | > 100 µM (inactive) | > 100 µM (inactive) | – | > 100 µM (inactive) | > 100 µM (inactive) | > 100 µM (inactive) | > 100 µM (inactive) | 49.3 µM (inactive) | > 100 µM (inactive) | > 100 µM (inactive) | 26.5 µM (inactive) | > 100 µM (inactive) | > 100 µM (inactive) | > 100 µM (inactive)
3 | CC(NC(=O)C(NC(=O)OC(C)(C)C)C(C)C)C(=O)N1CCCC1C(=O)NCC(=O)NC(C(=O)NCC(=O)O)C(C)C (stereo unspecified) (Boc-VAPGVG-OH; configuration not given here) | > 100 µM (inactive) | > 100 µM (inactive) | 77.3 µM (inactive) | > 100 | > 100 µM (inactive) | > 100 µM (inactive) | > 100 µM (inactive) | > 100 µM (inactive) | – | > 100 µM (inactive) | > 100 µM (inactive) | > 100 µM (inactive) | > 100 µM (inactive) | 29.2 µM (inactive) | > 100 µM (inactive) | > 100 µM (inactive) | > 100 µM (inactive) | > 100 µM (inactive) | – | > 100 µM (inactive)
4 | O=c1cnnc2sc(=S)[nH]n12 | 22.5 µM (inactive) | > 100 µM (inactive) | 44.5 µM (inactive) | 19.6 | 24 µM (inactive) | 4.13 µM (inactive) | 14.7 µM (inactive) | 31 µM (inactive) | – | 30.1 µM (inactive) | 2.97 µM (inactive) | – | – | – | – | 22.1 µM (inactive) | 16.6 µM (inactive) | 39.8 µM (inactive) | 20.1 µM (inactive) | 18.2 µM (inactive)
5 | CNC(=O)C(C)C1CCC2(C)C=CC(=O)C(C)=C2C1O (stereo unspecified) | – | > 47.2 µM (inactive) | 67.3 µM (inactive) | > 100 | > 55.2 µM (inactive) | > 100 µM (inactive) | > 100 µM (inactive) | – | > 100 µM (inactive) | > 47 µM (inactive) | > 44.8 µM (inactive) | > 100 µM (inactive) | > 100 µM (inactive) | > 100 µM (inactive) | – | > 44.8 µM (inactive) | > 100 µM (inactive) | > 100 µM (inactive) | > 39.6 µM (inactive) | > 100 µM (inactive)
6 | COC(=O)[C@]1(C)CCCn2c(=O)n(-c3ccccc3)c(=O)n21 | > 100 µM (inactive) | > 100 µM (inactive) | > 100 µM (inactive) | > 100 | > 100 µM (inactive) | > 100 µM (inactive) | > 100 µM (inactive) | – | 68.1 µM (inactive) | > 100 µM (inactive) | > 100 µM (inactive) | > 100 µM (inactive) | > 100 µM (inactive) | > 100 µM (inactive) | > 100 µM (inactive) | > 100 µM (inactive) | – | > 100 µM (inactive) | > 100 µM (inactive) | > 100 µM (inactive)
7 | S=C(N/N=C/c1ccccn1)N1CCCCCC1 | < 0.01 µM (active) | < 0.01 µM (active) | 0.444 µM (active) | < 0.01 | < 0.01 µM (active) | < 0.01 µM (active) | < 0.01 µM (active) | < 0.0392 µM (active) | – | < 0.01 µM (active) | 0.124 µM (active) | < 0.01 µM (active) | < 0.0192 µM (active) | 0.0783 µM (active) | 0.0101 µM (active) | < 0.01 µM (active) | < 0.01 µM (active) | < 0.01 µM (active) | < 0.0141 µM (active) | < 0.0245 µM (active)
8 | O=C1OC(=O)c2c1cc1cc3c(cc1c2-c1ccc2c(c1)OCO2)OCO3 | 22 µM (inactive) | > 100 µM (inactive) | > 100 µM (inactive) | > 100 | > 100 µM (inactive) | – | > 100 µM (inactive) | > 100 µM (inactive) | > 100 µM (inactive) | > 100 µM (inactive) | > 100 µM (inactive) | – | > 100 µM (inactive) | > 100 µM (inactive) | > 100 µM (inactive) | > 100 µM (inactive) | > 100 µM (inactive) | > 100 µM (inactive) | > 100 µM (inactive) | > 100 µM (inactive)
9 | C=C1CC[C@](C)(O)[C@@]2(C)CC[C@H]3C(=C(C)C)C(=O)C[C@]3(C)C[C@H]12 | 14.6 µM (inactive) | 36.1 µM (inactive) | 23 µM (inactive) | 14.9 | 14.7 µM (inactive) | 10.4 µM (inactive) | 28.4 µM (inactive) | – | > 50 µM (inactive) | 27.7 µM (inactive) | > 50 µM (inactive) | > 50 µM (inactive) | > 50 µM (inactive) | 29 µM (inactive) | > 50 µM (inactive) | > 50 µM (inactive) | 7.6 µM (inactive) | 18.3 µM (inactive) | 22.1 µM (inactive) | 16.5 µM (inactive)
10 | COc1ccc(-c2nc(-c3cnccn3)n(Cc3ccccc3)n2)cc1 | > 100 µM (inactive) | > 100 µM (inactive) | > 100 µM (inactive) | > 100 | > 100 µM (inactive) | > 100 µM (inactive) | > 100 µM (inactive) | – | – | > 100 µM (inactive) | > 100 µM (inactive) | > 100 µM (inactive) | > 100 µM (inactive) | 47.9 µM (inactive) | – | > 100 µM (inactive) | > 100 µM (inactive) | > 100 µM (inactive) | > 100 µM (inactive) | > 100 µM (inactive)
11 | Cc1ccc2nc(NC(=O)/C(Cc3nc4ccc(Cl)cc4nc3O)=N\NC(C)(C)C)sc2c1 | > 100 µM (inactive) | > 100 µM (inactive) | > 100 µM (inactive) | 90.6 | – | > 100 µM (inactive) | > 100 µM (inactive) | – | 9.59 µM (inactive) | > 100 µM (inactive) | 36.1 µM (inactive) | > 100 µM (inactive) | > 100 µM (inactive) | 15.5 µM (inactive) | – | > 100 µM (inactive) | > 100 µM (inactive) | > 100 µM (inactive) | > 10 µM (inactive) | > 100 µM (inactive)
12 | O=C1O/C(=C\c2ccc(O)cc2)C(c2ccc(O)c(Cl)c2)=C1Br | 13 µM (inactive) | 19.3 µM (inactive) | 11.3 µM (inactive) | 12.9 | 12 µM (inactive) | 42 µM (inactive) | 16.7 µM (inactive) | 15.3 µM (inactive) | – | 11.1 µM (inactive) | 14.5 µM (inactive) | 14 µM (inactive) | 15.6 µM (inactive) | – | 18.9 µM (inactive) | 18 µM (inactive) | 13.9 µM (inactive) | 16.4 µM (inactive) | 12.7 µM (inactive) | 13.7 µM (inactive)
